The target in one experiment is Phospholipase D1 (Homo sapiens, UniProt Q13393). The experiment can be described thus: PLD1 inhibitor potency in cells, dose response (AID 602151).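 Note: cellular PLD1 assay in Calu-1 cells stimulated with PMA.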 In kind it is functional.
In another experiment the target is Phospholipase D2 (Homo sapiens, UniProt O14939). Put plainly: PLD2 inhibitor potency in cells, dose response (AID 602147).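 Note: cellular assay in HEK293 cells overexpressing GFP-tagged PLD2.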 The class given is functional.
Phospholipase D2, sequence (O14939 whole entry): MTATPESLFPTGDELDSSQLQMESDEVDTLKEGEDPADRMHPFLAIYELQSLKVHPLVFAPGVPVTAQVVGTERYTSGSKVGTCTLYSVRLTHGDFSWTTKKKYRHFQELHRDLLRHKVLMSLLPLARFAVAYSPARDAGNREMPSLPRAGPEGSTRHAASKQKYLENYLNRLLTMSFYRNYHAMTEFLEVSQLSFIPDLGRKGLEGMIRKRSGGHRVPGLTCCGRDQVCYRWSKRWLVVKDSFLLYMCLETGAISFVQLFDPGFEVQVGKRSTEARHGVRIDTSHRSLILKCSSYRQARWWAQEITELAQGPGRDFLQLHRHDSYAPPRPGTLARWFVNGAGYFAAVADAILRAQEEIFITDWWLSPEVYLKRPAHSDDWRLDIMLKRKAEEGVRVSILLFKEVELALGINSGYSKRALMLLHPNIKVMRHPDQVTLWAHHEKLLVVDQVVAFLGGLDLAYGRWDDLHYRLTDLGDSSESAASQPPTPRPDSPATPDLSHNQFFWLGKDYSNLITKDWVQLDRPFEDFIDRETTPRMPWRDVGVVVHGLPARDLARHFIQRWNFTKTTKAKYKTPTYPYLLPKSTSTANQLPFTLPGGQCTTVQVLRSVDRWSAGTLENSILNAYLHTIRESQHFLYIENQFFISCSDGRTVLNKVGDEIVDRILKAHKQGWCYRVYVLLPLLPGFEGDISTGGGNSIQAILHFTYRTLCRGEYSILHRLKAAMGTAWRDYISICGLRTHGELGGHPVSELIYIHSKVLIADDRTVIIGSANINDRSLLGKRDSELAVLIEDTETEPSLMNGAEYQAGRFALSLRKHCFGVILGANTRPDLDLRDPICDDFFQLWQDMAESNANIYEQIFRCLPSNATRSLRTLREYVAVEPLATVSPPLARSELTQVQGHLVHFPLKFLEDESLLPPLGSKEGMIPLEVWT
In the next experiment the test system is CHO-K1. The experiment can be described thus: Counterscreen for antagonists of the orexin 1 receptor (OX1R; HCRTR1): Homogeneous time resolved fluorescence (HTRF)-based cell-based dose response assay to identify antagonists of the parental CHO-K1 cell line. [Related pubchem assays (depositor defined):AID434989, AID435008, AID463079, AID485270, AID492963, AID492964, AID492965, AID493232, AID504699, AID504701]. The class given is functional. The following applies: Cricetulus griseus.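 Note: potency for inhibition of ATP-stimulated IP1 production as antagonists.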

A short description of experiment [1]: Counterscreen for antagonists of the orexin 1 receptor (OX1R; HCRTR1): Fluorescence-based cell-based high throughput dose response assay to identify antagonists of the parental CHO cell line. [Related pubchem assays (depositor defined):AID434989, AID435008, AID463079, AID485270, AID492963, AID492964, AID492965, AID493232, AID504699, AID504701]. The class given is functional.

For experiment [2], the target named is T1, Orexin/Hypocretin receptor type 1 (Homo sapiens, UniProt O43613).
T1 sequence (O43613 whole entry): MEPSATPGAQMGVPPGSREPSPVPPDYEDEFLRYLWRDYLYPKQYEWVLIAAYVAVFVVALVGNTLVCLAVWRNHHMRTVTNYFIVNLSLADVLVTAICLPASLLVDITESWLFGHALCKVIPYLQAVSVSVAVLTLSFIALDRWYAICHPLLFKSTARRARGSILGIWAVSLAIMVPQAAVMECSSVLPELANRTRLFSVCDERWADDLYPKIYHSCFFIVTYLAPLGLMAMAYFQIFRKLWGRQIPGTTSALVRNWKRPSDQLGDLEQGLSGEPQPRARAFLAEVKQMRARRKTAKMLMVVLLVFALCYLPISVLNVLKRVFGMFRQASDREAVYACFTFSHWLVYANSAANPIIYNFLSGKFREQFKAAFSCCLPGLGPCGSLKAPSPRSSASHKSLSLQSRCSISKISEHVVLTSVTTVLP
The experiment can be described thus: Homogeneous Time Resolved Fluorescence (HTRF)-based cell-based high throughput dose response assay for antagonists of the orexin 1 receptor (OX1R; HCRTR1). [Related pubchem assays (depositor defined):AID434989, AID435008, AID463079, AID485270, AID492963, AID492964, AID492965, AID493232, AID504717, AID504718]. In kind it is functional.

The nature of experiment [3]: microbe, parasite or virus in culture. The note with it: Mycobacterium tuberculosis. The class given is functional.
Experiment [4] has as its target T1, Orexin/Hypocretin receptor type 1. Put plainly: Fluorescence-based cell-based high throughput dose response assay for antagonists of the orexin 1 receptor (OX1R; HCRTR1). [Related pubchem assays (depositor defined):AID434989, AID435008, AID463079, AID485270, AID492963, AID492964, AID492965, AID493232, AID504717, AID504718]. In kind it is functional.
Experiment [5] has as its target T2, Orexin receptor type 2 (Homo sapiens, UniProt O43614). Put plainly: Counterscreen assay for antagonists of the orexin 1 receptor (OX1R; HCRTR1): Fluorescence-based cell-based dose response assay for antagonists of the orexin 2 receptor (OX2R; HCRTR2), run by assay provider. The class given is functional.
The target in experiment [6] is T2, Orexin receptor type 2. Put plainly: Counterscreen assay for antagonists of the orexin 1 receptor (OX1R; HCRTR1): Homogeneous Time Resolved Fluorescence (HTRF)-based cell-based dose response assay for antagonists of the orexin 2 receptor (OX2R; HCRTR2), run by assay provider. In kind it is functional.
Experiment [7] relates to Candida albicans. Put plainly: reversal of fluconazole resistance in C. albicans, dose response, CaCi-2 strain, Alamar Blue, dry powder, set 3 (AID 488907). In kind it is functional, organism-based.
The test system of experiment [8] is Candida albicans. The experiment can be described thus: Candida albicans growth inhibition, agent alone, dose response, counter-screen for reversing antifungal drug resistance, CaCi-2 strain, no fluconazole, dry powder, set 4 (AID 488932). In kind it is functional, organism-based.
The test system of experiment [9] is Candida albicans. The experiment can be described thus: fluconazole resistance reversal in C. albicans, dose response, CaCi-2 strain, Alamar Blue, dry powder, set 4 (AID 488943). The class given is functional, organism-based.
For experiment [10], the system named is Candida albicans. Put plainly: growth inhibition of azole-resistant C. albicans, dose response, CaCi-8 strain, Alamar Blue, dry powder, set 3 (AID 488905). In kind it is functional, organism-based.
Experiment [11] deals with Candida albicans. The experiment can be described thus: growth inhibition of resistant C. albicans, dose response, CaCi-8 strain, fluconazole, dry powder, set 4 (AID 488950). The class given is functional, organism-based.
Experiment [12] concerns the target T3, Endoribonuclease toxin MazF (Escherichia coli K-12, UniProt P0AE70).
T3 sequence (P0AE70 whole entry): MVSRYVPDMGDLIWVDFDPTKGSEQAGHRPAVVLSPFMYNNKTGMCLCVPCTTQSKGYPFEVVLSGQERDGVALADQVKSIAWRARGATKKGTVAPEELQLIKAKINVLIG
The experiment can be described thus: fluorescent RNA oligo signal without MazF, dose response, counter-screen for MazEF activator project, biochemical, fluorescence, single-stranded RNase substrate (AID 588502). The class given is functional.

Experiment [13] deals with T3, Endoribonuclease toxin MazF. The experiment can be described thus: MazF toxin RNase activators, dose response, biochemical, fluorescence, single-stranded RNA substrate, uHTS hits (AID 588481). The class given is functional.
The test system of a further experiment is MEF. Put plainly: SAR analysis of small molecule cytotoxicity of MazEF TA System activators in embryonic fibroblast (MEF) cells. [Related pubchem assays (depositor defined):AID504720, AID504743]. In kind it is functional. The following applies: Mus musculus.
The target in experiment [14] is T3, Endoribonuclease toxin MazF. The experiment can be described thus: SAR analysis of small molecule activators of the MazEF TA System via a fluorescence-based single-stranded RNase assay counterscreen. [Related pubchem assays (depositor defined):AID504720, AID504743]. The class given is functional.
Experiment [15] has the same target. The experiment can be described thus: MazF endoribonuclease activators, SAR follow-up, biochemical, fluorescence, single-stranded RNA substrate (AID 588603). The class given is functional.

Molecules are shown by their SMILES. Active and inactive are the calls of the source.

T2 sequence (O43614 whole entry): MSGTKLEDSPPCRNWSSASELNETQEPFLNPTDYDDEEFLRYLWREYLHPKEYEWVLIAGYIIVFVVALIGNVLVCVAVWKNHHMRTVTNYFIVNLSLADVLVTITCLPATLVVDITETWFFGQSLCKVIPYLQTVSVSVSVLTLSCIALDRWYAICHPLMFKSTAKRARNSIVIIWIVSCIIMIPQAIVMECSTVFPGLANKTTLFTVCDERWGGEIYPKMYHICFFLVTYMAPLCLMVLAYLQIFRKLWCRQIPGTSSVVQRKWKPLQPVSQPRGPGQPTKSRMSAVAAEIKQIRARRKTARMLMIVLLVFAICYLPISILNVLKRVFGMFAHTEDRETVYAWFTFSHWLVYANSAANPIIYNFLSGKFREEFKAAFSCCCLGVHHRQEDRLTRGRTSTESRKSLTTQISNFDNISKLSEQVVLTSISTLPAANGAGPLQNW
Phospholipase D1, sequence (Q13393 whole entry): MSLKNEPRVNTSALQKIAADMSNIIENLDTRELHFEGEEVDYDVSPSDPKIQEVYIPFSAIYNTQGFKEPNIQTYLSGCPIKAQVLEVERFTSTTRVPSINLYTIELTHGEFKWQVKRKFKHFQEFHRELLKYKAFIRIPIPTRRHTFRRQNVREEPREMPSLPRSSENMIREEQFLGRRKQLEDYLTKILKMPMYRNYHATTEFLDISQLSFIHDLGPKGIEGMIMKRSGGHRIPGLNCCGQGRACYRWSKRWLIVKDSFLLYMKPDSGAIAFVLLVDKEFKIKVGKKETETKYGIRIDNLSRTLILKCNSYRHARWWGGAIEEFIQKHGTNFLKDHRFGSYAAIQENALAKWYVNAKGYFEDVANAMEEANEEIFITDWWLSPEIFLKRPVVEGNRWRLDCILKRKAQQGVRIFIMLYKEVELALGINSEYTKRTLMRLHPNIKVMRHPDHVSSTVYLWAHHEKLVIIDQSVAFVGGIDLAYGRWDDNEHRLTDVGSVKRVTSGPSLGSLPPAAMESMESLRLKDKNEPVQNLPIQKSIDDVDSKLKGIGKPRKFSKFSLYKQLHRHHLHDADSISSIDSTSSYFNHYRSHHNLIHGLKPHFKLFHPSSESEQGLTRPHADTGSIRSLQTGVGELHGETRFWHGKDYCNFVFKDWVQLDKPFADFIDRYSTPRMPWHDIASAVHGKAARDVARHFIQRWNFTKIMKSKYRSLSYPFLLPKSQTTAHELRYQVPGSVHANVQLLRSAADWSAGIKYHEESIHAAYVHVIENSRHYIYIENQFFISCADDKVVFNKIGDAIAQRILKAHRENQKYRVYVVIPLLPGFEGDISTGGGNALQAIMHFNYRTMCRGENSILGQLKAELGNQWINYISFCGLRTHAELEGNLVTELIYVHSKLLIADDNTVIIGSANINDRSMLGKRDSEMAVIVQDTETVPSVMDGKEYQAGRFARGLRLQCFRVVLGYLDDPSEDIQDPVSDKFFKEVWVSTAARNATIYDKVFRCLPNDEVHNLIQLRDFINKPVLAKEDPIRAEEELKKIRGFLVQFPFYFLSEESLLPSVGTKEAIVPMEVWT

On to `O=C(NCCN1CCC(n2c(=O)[nH]c3ccccc32)CC1)c1cc2ccccc2c2ccccc12`, for which the IC50 at Phospholipase D1 is 0.016 µM (active); at Phospholipase D2 it was 0.42 µM (active).

As for `OCC1(Cc2cccc(Cl)c2)CCCN(Cc2ccc3cc(F)ccc3n2)C1` (centres undefined), the IC50 with CHO-K1 is > 66.2 µM (inactive); in experiment [1] it was 31.4 µM (inactive); in experiment [2], 6.33 µM (active); in experiment [4] it was > 5.53 µM (active); on Orexin receptor type 2 [5] it was 6.7 µM (active); on Orexin receptor type 2 [6], 25.1 µM (inactive). Moreover, the CC50 in experiment [3] is > 40 µM (active).

For the compound `O=C(c1ccc(Cl)cc1)N1CCN(c2nccs2)CC1`, the AC50 in the experiment on Candida albicans [7] is 0.555 µM (active); in the experiment on Candida albicans [8] it was 195 µM (active); with Candida albicans [9], 3.24 µM (active); in the experiment with Candida albicans [10], 20 µM (active); with Candida albicans [11], 3.77 µM (active).

For the compound `CCC(C)NC(=O)c1ccc(CNS(=O)(=O)c2ccc3c(c2)C(C)(C)C(=O)N3C)cc1` (centres undefined), the EC50 is > 99 µM (inactive) in experiment [12], 15.9 µM (active) in experiment [13], > 99 µM (inactive) in [14] and 21.8 µM (inactive) in [15]. Besides, in the experiment with MEF, the CC50 was > 99 µM (inactive).

The record behind these values is ChEMBL document CHEMBL1201862, “PubChem BioAssay data set” (2004).
